From PubChem BioAssay (NCI)
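In this assay, cells in 96-well plates receive the compound at five concentrations for 48 hours. Endpoints are linearly interpolated between the surrounding concentrations. Definition used: TGI = concentration required for complete inhibition of growth.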

Experiments:
Assay in all cases: NCI tumour cell line growth inhibition, 48 h
SF-268 CNS = system: SF-268 CNS
KM12 colon = system: KM12 colon
M14 melanoma = system: M14 melanoma
HOP-18 NSCLC = system: HOP-18 NSCLC
KM20L2 colon = system: KM20L2 colon
RXF 393 renal = system: RXF 393 renal
IGROV1 ovarian = system: IGROV1 ovarian
UACC-62 melanoma = system: UACC-62 melanoma
A498 renal = system: A498 renal
NCI-H226 lung = system: NCI-H226 lung
COLO 205 colon = system: COLO 205 colon
786-0 renal = system: 786-0 renal
SF-539 CNS = system: SF-539 CNS
DU-145 prostate = system: DU-145 prostate
UACC-257 melanoma = system: UACC-257 melanoma
RPMI-8226 leukemia = system: RPMI-8226 leukemia
NCI-H522 lung = system: NCI-H522 lung
SK-MEL-2 melanoma = system: SK-MEL-2 melanoma
NCI-H460 lung = system: NCI-H460 lung
SF-295 CNS = system: SF-295 CNS
A549 NSCLC = system: A549 NSCLC
SNB-75 CNS = system: SNB-75 CNS
SNB-78 CNS = system: SNB-78 CNS
M19-MEL melanoma = system: M19-MEL melanoma
K-562 leukemia = system: K-562 leukemia
HT29 colon = system: HT29 colon
SN12C renal = system: SN12C renal
HCC-2998 colon = system: HCC-2998 colon
SW-620 colon = system: SW-620 colon
LOX IMVI melanoma = system: LOX IMVI melanoma
SNB-19 CNS = system: SNB-19 CNS
CAKI-1 renal = system: CAKI-1 renal
SR leukemia = system: SR leukemia
SK-MEL-28 melanoma = system: SK-MEL-28 melanoma
MALME-3M melanoma = system: MALME-3M melanoma
HCT-116 colon = system: HCT-116 colon
MOLT-4 leukemia = system: MOLT-4 leukemia
HL-60(TB) leukemia = system: HL-60(TB) leukemia
U251 CNS = system: U251 CNS
DLD-1 colon = system: DLD-1 colon
UO-31 renal = system: UO-31 renal
OVCAR-3 ovarian = system: OVCAR-3 ovarian
HOP-92 NSCLC = system: HOP-92 NSCLC
NCI-H23 lung = system: NCI-H23 lung
OVCAR-5 ovarian = system: OVCAR-5 ovarian
HCT-15 colon = system: HCT-15 colon
SK-OV-3 ovarian = system: SK-OV-3 ovarian
OVCAR-8 ovarian = system: OVCAR-8 ovarian
TK-10 renal = system: TK-10 renal
SK-MEL-5 melanoma = system: SK-MEL-5 melanoma
LXFL 529 NSCLC = system: LXFL 529 NSCLC
CCRF-CEM leukemia = system: CCRF-CEM leukemia
OVCAR-4 ovarian = system: OVCAR-4 ovarian
XF 498 CNS = system: XF 498 CNS
EKVX NSCLC = system: EKVX NSCLC
DMS 114 small cell lung = system: DMS 114 small cell lung
HOP-62 NSCLC = system: HOP-62 NSCLC
ACHN renal = system: ACHN renal

`C=C=C(Sc1ccccc1)C(C)(C)OC(C)=O` showed a TGI (SF-268 CNS) of 27.7 µM, a TGI (KM12 colon) of 31.4 µM and a TGI (M14 melanoma) of 32.4 µM. For the same compound, the TGI (HOP-18 NSCLC) was 38.5 µM, the TGI (KM20L2 colon) was 58.7 µM and the TGI (RXF 393 renal) was 28.4 µM. It also gave a TGI (IGROV1 ovarian) of 33.3 µM, a TGI (UACC-62 melanoma) of 29.2 µM and a TGI (A498 renal) of 42.6 µM. For the same compound, the TGI (NCI-H226 lung) was 45.4 µM, the TGI (COLO 205 colon) was 32.5 µM and the TGI (786-0 renal) was 30.1 µM. It also gave a TGI (SF-539 CNS) of 29.8 µM, a TGI (DU-145 prostate) of 90.2 µM and a TGI (UACC-257 melanoma) of 32.4 µM. For the same compound, the TGI (RPMI-8226 leukemia) was greater than 100 µM, the TGI (NCI-H522 lung) was 29.6 µM and the TGI (SK-MEL-2 melanoma) was 35 µM. For the same compound, the TGI (NCI-H460 lung) was 46.8 µM, the TGI (SF-295 CNS) was 33.6 µM and the TGI (A549 NSCLC) was 74.8 µM. The TGI (SNB-75 CNS) was 49.8 µM, the TGI (SNB-78 CNS) was 91.4 µM and the TGI (M19-MEL melanoma) was 30.6 µM. It also gave a TGI (K-562 leukemia) of 52 µM, a TGI (HT29 colon) of 37 µM and a TGI (SN12C renal) of 31.1 µM. The TGI (HCC-2998 colon) was 43.1 µM, the TGI (SW-620 colon) was 33.7 µM and the TGI (LOX IMVI melanoma) was 30.9 µM. The TGI (SNB-19 CNS) was 40.4 µM, the TGI (CAKI-1 renal) was 90.2 µM and the TGI (SR leukemia) was greater than 100 µM. For the same compound, the TGI (SK-MEL-28 melanoma) was 31.4 µM, the TGI (MALME-3M melanoma) was 35.3 µM and the TGI (HCT-116 colon) was 27.7 µM. For the same compound, the TGI (MOLT-4 leukemia) was greater than 100 µM, the TGI (HL-60(TB) leukemia) was 81 µM and the TGI (U251 CNS) was 31.6 µM. The TGI (DLD-1 colon) was 31.5 µM, the TGI (UO-31 renal) was 28.6 µM and the TGI (OVCAR-3 ovarian) was 31.1 µM. It also gave a TGI (HOP-92 NSCLC) of 34.2 µM, a TGI (NCI-H23 lung) of 32.9 µM and a TGI (OVCAR-5 ovarian) of 45.2 µM. It also gave a TGI (HCT-15 colon) of 46.9 µM, a TGI (SK-OV-3 ovarian) of 51.9 µM and a TGI (OVCAR-8 ovarian) of 46.9 µM. It also gave a TGI (TK-10 renal) greater than 100 µM, a TGI (SK-MEL-5 melanoma) of 29.3 µM and a TGI (LXFL 529 NSCLC) of 38.3 µM. For the same compound, the TGI (CCRF-CEM leukemia) was 58.7 µM and the TGI (OVCAR-4 ovarian) was greater than 100 µM.
Compound `O=C1CCC2(c3ccccc3)Nc3ncccc3N12` (stereo unspecified) has a TGI (SF-268 CNS) greater than 100 µM, a TGI (KM12 colon) greater than 100 µM and a TGI (M14 melanoma) greater than 100 µM. It also gave a TGI (KM20L2 colon) greater than 100 µM, a TGI (RXF 393 renal) greater than 100 µM and a TGI (XF 498 CNS) greater than 100 µM. The TGI (IGROV1 ovarian) was greater than 100 µM, the TGI (UACC-62 melanoma) was greater than 100 µM and the TGI (A498 renal) was greater than 100 µM. For the same compound, the TGI (NCI-H226 lung) was greater than 100 µM, the TGI (COLO 205 colon) was greater than 100 µM and the TGI (EKVX NSCLC) was greater than 100 µM. It also gave a TGI (786-0 renal) greater than 100 µM, a TGI (SF-539 CNS) greater than 100 µM and a TGI (UACC-257 melanoma) greater than 100 µM. For the same compound, the TGI (RPMI-8226 leukemia) was greater than 100 µM, the TGI (NCI-H522 lung) was greater than 100 µM and the TGI (SK-MEL-2 melanoma) was greater than 100 µM. It also gave a TGI (NCI-H460 lung) greater than 100 µM, a TGI (SF-295 CNS) greater than 100 µM and a TGI (A549 NSCLC) greater than 100 µM. The TGI (SNB-75 CNS) was greater than 100 µM, the TGI (SNB-78 CNS) was greater than 100 µM and the TGI (DMS 114 small cell lung) was greater than 100 µM. It also gave a TGI (M19-MEL melanoma) greater than 100 µM, a TGI (K-562 leukemia) greater than 100 µM and a TGI (HT29 colon) greater than 100 µM. For the same compound, the TGI (SN12C renal) was greater than 100 µM, the TGI (HCC-2998 colon) was greater than 100 µM and the TGI (SW-620 colon) was greater than 100 µM. For the same compound, the TGI (LOX IMVI melanoma) was greater than 100 µM, the TGI (CAKI-1 renal) was greater than 100 µM and the TGI (SK-MEL-28 melanoma) was greater than 100 µM. For the same compound, the TGI (MALME-3M melanoma) was greater than 100 µM, the TGI (MOLT-4 leukemia) was greater than 100 µM and the TGI (HL-60(TB) leukemia) was greater than 100 µM. For the same compound, the TGI (U251 CNS) was greater than 100 µM, the TGI (DLD-1 colon) was greater than 100 µM and the TGI (UO-31 renal) was greater than 100 µM. For the same compound, the TGI (OVCAR-3 ovarian) was greater than 100 µM, the TGI (HOP-62 NSCLC) was greater than 100 µM and the TGI (ACHN renal) was greater than 100 µM. It also gave a TGI (HOP-92 NSCLC) greater than 100 µM, a TGI (NCI-H23 lung) greater than 100 µM and a TGI (OVCAR-5 ovarian) greater than 100 µM. For the same compound, the TGI (HCT-15 colon) was greater than 100 µM, the TGI (SK-OV-3 ovarian) was greater than 100 µM and the TGI (OVCAR-8 ovarian) was greater than 100 µM. It also gave a TGI (TK-10 renal) greater than 100 µM, a TGI (SK-MEL-5 melanoma) greater than 100 µM and a TGI (LXFL 529 NSCLC) greater than 100 µM. It also gave a TGI (CCRF-CEM leukemia) greater than 100 µM and a TGI (OVCAR-4 ovarian) greater than 100 µM.
